Values belong to the molecule of their own block, whether it stands above or below them.
Experiments:
[1] = molecular target: T1, lipoxygenase from rabbit reticulocytes (Oryctolagus cuniculus, UniProt P12530); assay: inhibition of activity of lipoxygenase from rabbit reticulocytes; assay type: biochemical; conditions: for inhibition of rabbit reticulocyte lipoxygenase by known lipoxygenase inhibitors: concentration not given; for IC50: Table 3, in parentheses, read-out: I50-value, lipoxygenase from reticulocytes; for inhibition at 1000 µM: ultimate concentration 1.0 mM; for effect on reticulocyte lipoxygenase: ultimate concentration 1 mM
T1 construct: Lipoxygenase from rabbit reticulocytes was obtained in electrophoretically and immunologically pure form; from tissue; host or cells: rabbit reticulocytes
T1 sequence (P12530 1-663): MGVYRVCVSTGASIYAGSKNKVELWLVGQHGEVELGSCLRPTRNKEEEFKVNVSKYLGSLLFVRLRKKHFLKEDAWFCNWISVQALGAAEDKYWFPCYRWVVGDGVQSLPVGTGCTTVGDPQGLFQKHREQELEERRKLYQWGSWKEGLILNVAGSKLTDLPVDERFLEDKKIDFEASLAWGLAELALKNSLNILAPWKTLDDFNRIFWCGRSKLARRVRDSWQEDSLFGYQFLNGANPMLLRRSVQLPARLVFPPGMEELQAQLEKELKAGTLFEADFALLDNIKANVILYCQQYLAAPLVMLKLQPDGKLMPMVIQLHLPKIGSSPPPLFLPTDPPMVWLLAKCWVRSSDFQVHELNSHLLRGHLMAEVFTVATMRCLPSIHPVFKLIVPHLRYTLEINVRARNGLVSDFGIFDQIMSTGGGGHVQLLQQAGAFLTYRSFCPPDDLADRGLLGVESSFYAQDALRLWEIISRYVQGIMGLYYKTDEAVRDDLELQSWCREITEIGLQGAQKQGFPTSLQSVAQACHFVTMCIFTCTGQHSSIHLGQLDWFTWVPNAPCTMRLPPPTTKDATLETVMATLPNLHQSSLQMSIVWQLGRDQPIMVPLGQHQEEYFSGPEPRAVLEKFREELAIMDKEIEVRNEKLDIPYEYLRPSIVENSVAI
Protocol: (§1) Persuasive evidence to inhibition of lipoxygenase was produced by a suitable animal lipoxygenase which had been isolated from rabbit reticulocytes, using a method by Rapoport and coworkers /S. M. Rapoport et al., Eur. J. Biochem. 96, 545 (1979)/. A final concentration of 1 mM of most of the compounds, according to this invention, produced inhibition of 90 percent or more (cf. Example 20). Significant inhibition was even recordable from a final concentration of 0.1 mM of some of the compounds, according to this invention. Substance concentrations were varied to determine the titration curves of inhibition and from these the half-inhibition concentrations (I50 -values). A half-inhibition concentration of 7 μM was established for 5-methyl-2-hydroxy-laurophenone-oxime, an oxime of high anti-asthmatic effectiveness.
Inhibition of activity of lipoxygenase from rabbit reticulocytes:
(§2) Lipoxygenase from rabbit reticulocytes was obtained in electrophoretically and immunologically pure form by means of the method described in the literature /S. M. Rapoport et al., Eur. J. Biochem. 96, 545 (1979)/. Lipoxygenase activity was determined at 25° C. by amperometric measurement of oxygen consumption by means of a Clark electrode in the following system: 0.1M potassium phosphate, pH 7.4, with 0.2-per-cent sodium cholate and 0.53 mM linoleic acid. The enzyme concentration was […] in the sample for measurement. The substances submitted for testing were dissolved in methyl glycol (fresh distillation in vacuum) and pre-incubated ten minutes with the enzyme at measurement temperature and in the absence of sodium cholate and linoleic acid. […] No remarkable inhibition occurred to control samples under these conditions. Enzyme reaction was started by addition of sodium cholate and linoleic acid. The titration curve of inhibition and, consequently, the concentrations required for inhibition by the order of 50 per cent were determined by variation of active substance concentrations. For comparison, the compounds were tested also on commercial lipoxygenase-1 from soybean.

thrombocyte aggregation = assay: inhibition of thrombocyte aggregation induced by arachidonic acid or platelet activation factor; assay type: cell-based, man
Protocol: Since inhibition of lipoxygenase was identified as molecular point of attack of these new medicaments, studies were conducted also into their action upon thrombocyte aggregation. The substantive role played by the lipoxygenase route in the irreversibility of thrombocyte aggregation is well established at present/C. E. Dutilh et al., Prostaglandins and Medicine 6, 111 (1981)/. A key role in the pathogenesis of thrombotic diseases is attributed to irreversibility of thrombocyte aggregation. […] In the experiments conducted for this invention, thrombocyte aggregation was triggered off either by arachidonic acid or by the platelet activation factor (PAF-acether).
Inhibition of thrombocyte aggregation induced by arachidonic acid or the platelet activation factor:
The compounds were tested for antithrombotic and thrombolytic activity in vitro on the authentic cell system of man. High-thrombocyte plasma was obtained from the blood of clinically healthy donors by 1000×g centrifugation. Thrombocyte aggregation was measured by means of an aggregometer on the basis of diffuse scatter of light or absorption of light by resulting cell aggregates. The high-thrombocyte plasma was pre-incubated with the active substances at 37° C. for three minutes. Thrombocyte aggregation was then triggered off by alternative addition of 0.8 mM of arachidonic acid or 1 μM of platelet activation factor (PAF acether). […]

[2] = molecular target: T2, lipoxygenase-1 from soybean (Glycine max, UniProt P08170); assay: inhibition of soybean lipoxygenase-1; assay type: biochemical; conditions: read-out: Inhibition (percent) of lipoxygenase from soybean; for inhibition at 1000 µM: ultimate concentration 1.0 mM
T2 construct: purchased
T2 sequence (P08170 1-839): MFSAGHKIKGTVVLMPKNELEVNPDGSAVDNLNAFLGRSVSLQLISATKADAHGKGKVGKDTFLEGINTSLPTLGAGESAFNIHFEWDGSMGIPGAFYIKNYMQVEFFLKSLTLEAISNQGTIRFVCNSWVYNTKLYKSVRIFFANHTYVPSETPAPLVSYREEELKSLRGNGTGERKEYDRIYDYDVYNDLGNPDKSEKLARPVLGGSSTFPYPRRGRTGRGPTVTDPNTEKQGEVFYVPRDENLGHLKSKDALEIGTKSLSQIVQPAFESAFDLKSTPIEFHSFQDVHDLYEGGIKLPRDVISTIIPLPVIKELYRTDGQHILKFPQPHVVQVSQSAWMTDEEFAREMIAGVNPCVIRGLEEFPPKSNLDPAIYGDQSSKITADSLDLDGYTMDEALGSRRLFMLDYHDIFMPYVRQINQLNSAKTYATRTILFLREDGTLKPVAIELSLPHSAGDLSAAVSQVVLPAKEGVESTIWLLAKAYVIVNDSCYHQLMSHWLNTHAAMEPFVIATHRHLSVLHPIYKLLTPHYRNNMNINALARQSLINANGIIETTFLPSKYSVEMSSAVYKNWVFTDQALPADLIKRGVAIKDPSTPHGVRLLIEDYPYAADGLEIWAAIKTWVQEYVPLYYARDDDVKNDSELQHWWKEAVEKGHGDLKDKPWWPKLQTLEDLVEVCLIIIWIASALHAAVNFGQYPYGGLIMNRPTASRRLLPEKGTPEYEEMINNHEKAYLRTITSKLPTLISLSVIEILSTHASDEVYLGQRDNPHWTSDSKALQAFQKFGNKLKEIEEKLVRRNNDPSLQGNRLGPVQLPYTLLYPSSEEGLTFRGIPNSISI
Protocol: as §1, §2

sensitised guinea pig = conditions: cited: C. Armour and D. M. Temple, Agents Action 12, 285 (1982); cited from earlier work
[3] = read-out: Inhibition (percent) of lipoxygenase from reticulocytes

inhibition of rabbit reticulocyte lipoxygenase by known lipoxygenase inhibitors [1]: inhibited with high effectiveness
SMILES: CCCCCC#CCC#CCC#CCC#CCCCC(=O)O [5,8,11,14-eicosa-tetraynoic acid, reference compound]

inhibition at 1000 µM [2]: 68% | IC50 [1]: 260 µM | inhibition at 1000 µM [1, 3]: 100%
SMILES: CCCCCCOc1ccc(C(C)=NO)c(O)c1 [4-hexyloxy-2-hydroxy-acetophenone-oxime]
retardation of thrombocyte aggregation (thrombocyte aggregation; 44 μM): retarded aggregation by about two minutes | inhibition of thrombocyte aggregation (thrombocyte aggregation; 60 μM): total inhibition

inhibition of rabbit reticulocyte lipoxygenase by known lipoxygenase inhibitors [1]: inhibited with high effectiveness
SMILES: CCCCCCCCC#CCC#CCC#CCCCC(=O)O [5,8,11-eicosatriynoic acid, reference compound]

effect on reticulocyte lipoxygenase [1]: failed to have an effect
SMILES: O=C(O)c1cc(=O)c2c(OCC(O)COc3cccc4oc(C(=O)O)cc(=O)c34)cccc2o1 [disodium-cromoglycate, reference compound]
comparable anti-asthmatic, anti-allergic, and anti-anaphylactic effects on a whole-animal model (sensitised guinea pig): have not even been known

inhibition of rabbit reticulocyte lipoxygenase by known lipoxygenase inhibitors [1]: inhibited with high effectiveness
SMILES: O=[N+]([O-])c1ccc(O)c(O)c1 [4-nitrocatechol, reference compound]

SMILES: CC(Cc1ccc(O)c(O)c1)C(C)Cc1ccc(O)c(O)c1 (centres unmarked) [nordihydroguaiaretic acid, reference compound]
inhibition of rabbit reticulocyte lipoxygenase by known lipoxygenase inhibitors [1]: inhibited with high effectiveness

inhibition at 500 µM ([2]; ultimate concentration 0.5 mM): 38% | IC50 [1]: 500 µM | inhibition at 500 µM ([1]; ultimate concentration 0.5 mM, read-out: Inhibition (percent) of lipoxygenase from reticulocytes): 75%
SMILES: CCCCCCCCCCCCCCCCOc1ccc(C(C)=NO)c(O)c1 [4-hexadecyloxy-2-hydroxy-acetophenone-oxime]

SMILES: CN1CCC(=C2c3ccccc3CC(=O)c3sccc32)CC1 [ketotifen, reference compound]
comparable anti-asthmatic, anti-allergic, and anti-anaphylactic effects on a whole-animal model (sensitised guinea pig): have not even been known | effect on reticulocyte lipoxygenase [1]: failed to have an effect

SMILES: COc1ccc(O)c(C(C)(C)C)c1 [3-tert.-butyl-4-hydroxy-anisol, reference compound]
inhibition of rabbit reticulocyte lipoxygenase by known lipoxygenase inhibitors [1]: inhibited with high effectiveness

inhibition at 1000 µM [2]: 24% | IC50 [1]: 300 µM | inhibition at 1000 µM [1, 3]: 90%
SMILES: CCCCCC(=NO)c1cc(Cl)ccc1O [5-chloro-2-hydroxy-caprophenone-oxime]

From US4816487A, “1-(2-hydroxyaryl)-alkane-1-on-oximes-procedure of preparation and use in pharmaceuticals” (Humboldt-Universitaet zu Berlin, priority 1985, dated 1989)
